{"source": "patent US20100286152A1", "about": "“N-PHENYL HYDRAZIDES AS MODULATORS OF THE GHRELIN RECEPTOR” (Glaxo Group Limited, priority 2007, published 2010)", "key": {"[1]": {"biological_target": "T1, Human GHS-R (ghrelin receptor) (Homo sapiens, UniProt Q92847)", "T1 construct": "The full-length gene was transferred into pCDN for expression analysis; expressed in transfected cells; host or cells: U2OS cells transduced with human GHSR BacMam virus", "T1 sequence (Q92847 whole entry)": "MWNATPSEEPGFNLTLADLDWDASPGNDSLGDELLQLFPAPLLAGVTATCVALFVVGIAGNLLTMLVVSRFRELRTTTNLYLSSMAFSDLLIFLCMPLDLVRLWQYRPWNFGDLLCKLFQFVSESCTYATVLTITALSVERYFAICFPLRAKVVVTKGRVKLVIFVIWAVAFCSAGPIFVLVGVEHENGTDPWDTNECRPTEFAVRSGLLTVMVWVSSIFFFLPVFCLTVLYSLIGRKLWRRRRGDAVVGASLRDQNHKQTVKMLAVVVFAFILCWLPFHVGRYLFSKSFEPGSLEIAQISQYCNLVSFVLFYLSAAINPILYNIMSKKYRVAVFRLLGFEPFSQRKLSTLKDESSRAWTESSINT", "experiment": "GHSR Agonist BACMAM FLIPR Assay (Method X or Y)", "format": "cell-based", "conditions": "U2OS cells, maximum asymptote relative to that of the hGhrelin concentration response curve", "protocol": "(§1) 24 h prior to assay U2OS cells at confluence 100% were harvested and spun down. The supernatant was removed and the cells resuspended in media (DMEM+10% FBS+1% L-Glutamine). A cell count was performed using the Cedex instrumentation, and the concentration of cells was adjusted using media to give 200K cells per mL (10K cells/50 μL).\n(§2) Human GHSR BACMAM virus was added to the cell suspension at an appropriate % volume (calculated for individual batches of BACMAM virus as viral titres vary). The transduced cell suspension was dispensed into FLIPR 384-well clear bottom plates, 50 μL per well. Cell plates were incubated at 37° C. overnight.\nMaster compound plates were prepared in 100% DMSO. 3 mM was the top concentration (giving 10 μM final concentration) and they were serially diluted 1 in 4. 1 μL from the master plate was transferred to a daughter plate, to which was added 50 μL of compound dilution (Tyrodes {Elga water+145 mM NaCl+5 mM KCl+20 mM HEPES+10 mM glucose+1 mM MgCl2+1.5 mM CaCl2}. For the agonist assay, the compound buffer also contained 0.1% BSA. This plate was used for the assay. Ghrelin was always prepared in buffer containing 0.1% BSA.\nMaster compound plates were prepared in 100% DMSO. 3 mM was the top concentration (giving 10 μM final concentration) and they were serially diluted 1 in 4. 1 μL from the master plate was transferred to a daughter plate, to which was added 50 μL of compound dilution (HBSS {Elga water+137 mM NaCl+5 mM KCl+0.41 mMa KH2PO4(anhyd)+20 mM HEPES+5 mM glucose+0.81 mM MgSO4(anhyd)+1.3 mM CaCl2+4.16 mM NaHCO3}. For the agonist assay, the compound buffer also contained 0.1% BSA. This plate was used for the assay. Ghrelin was always prepared in buffer containing 0.1% BSA.\nMedia was aspirated from cell plates using a cell washer (leaving 10 μL of media). Cells were immediately loaded with loading buffer (Tyrodes buffer-(Elga water+145 mM NaCl+5 mM KCl+20 mM HEPES+10 mM glucose+1 mM MgCl2)+1.5 mM CaCl2+0.714 mg/mL Probenecid (predissolved in 1 M NaOH)+0.25 mM brilliant black+2 μM Fluo 4 dye, and incubated at 37.5° C., 5% CO2 for 90 min. The plates were placed in a FLuorimetric Imaging Plate Reader (FLIPR, Molecular Devices) where 10 μL of compound, prepared according to method A above, was added to the cells and fluorescence measurements were taken. Maximum changes in fluorescence were plotted as a percentage of the maximum response elicited by 300 nM hGhrelin and curves fitted using a 4-parameter logistic equation to generate pEC50 values. Intrinsic activity of the compounds was calculated by using the maximum asymptote of it's concentration response curve relative to the maximum asymptote of the hGhrelin concentration response curve.\nMedia was aspirated from cell plates using a cell washer (leaving 10 μL of media). Cells were immediately loaded with loading buffer (HBSS (Elga water+137 mM NaCl+5 mM KCl+0.41 mM KH2PO4(anhyd)+20 mM HEPES+5 mM glucose+0.81 mM MgSO4(anhyd))+1.3 mM CaCl2+4.16 mM NaHCO3+0.714 mg/mL Probenecid (predissolved in 1 M NaOH)+0.25 mM brilliant black+2 μM Fluo 4 dye, and incubated at 37.5° C., 5% CO2 for 90 min. The plates were placed in a FLuorimetric Imaging Plate Reader (FLIPR, Molecular Devices) where 10 μL of compound, prepared according to method B above, was added to the cells and fluorescence measurements were taken. Maximum changes in fluorescence were plotted as a percentage of the maximum response elicited by 300 nM hGhrelin and curves fitted using a 4-parameter logistic equation to generate pEC50 values. Intrinsic activity of the compounds was calculated by using the maximum asymptote of it's concentration response curve relative to the maximum asymptote of the hGhrelin concentration response curve."}, "[2]": {"biological_target": "T1, Human GHS-R (ghrelin receptor)", "experiment": "GHSR Agonist BACMAM FLIPR Assay (Method Z)", "format": "cell-based", "conditions": "U2OS cells, maximum asymptote relative to maximum response of hGhrelin at 100 nM", "protocol": "as §1, §2\nMaster compound plates were prepared in 100% DMSO. 0.6 mM was the top concentration (giving 3 μM final concentration) and they were serially diluted 1 in 4. 1 μL from the master plate was transferred to a daughter plate, to which was added 50 μL of compound dilution (NaCl (145 mM) KCl (5 mM) CaCl2 (2 mM) MgCl2 (1 mM) HEPES (20 mM) D-(+)-Glucose (1 g/l), pluronic acid (0.05%), pH 7.3). This plate was used for the assay. Ghrelin was always prepared in compound dilution buffer containing 0.1% BSA.\nMedia was washed from cell plates, using a cell washer (leaving 20 μL of washing buffer (NaCl (145 mM)+KCl (5 mM)+CaCl2 (2 mM)+MgCl2 (1 mM)+HEPES (20 mM)+D-(+)-Glucose (1 g/l)+Probenecid (2.5 mM), pH 7.3). Cells were immediately loaded with loading buffer (washing buffer+pluronic acid (0.02%)+Fluo 4 dye (2 μM), and incubated at 37° C., for 60 min. After a second washing step (same as for the pre-loading, but leaving 30 μL of washing buffer), the plates were placed in a FLuorimetric Imaging Plate Reader (FLIPR, Molecular Devices) where 10 μL of compound, prepared according to method C above, was added to the cells and fluorescence measurements were taken. […] Percentage activation of the compounds was calculated by using the maximum asymptote of it's concentration response curve relative to the maximum response of the hGhrelin at 100 nM concentration."}}}
{"smiles": "CN1CCN(C(C(=O)NNc2cc(C(F)(F)F)cc(C(F)(F)F)c2)c2cccc(OC(F)(F)F)c2)CC1", "note": "(racemic) [Compound 37, (±)-N′-[3,5-bis(trifluoromethyl)phenyl]-2-(4-methyl-1-piperazinyl)-2-{3-[(trifluoromethyl)oxy]phenyl}acetohydrazide]", "values": [{"measurement": "intrinsic activity (IA)", "setting": "[1]", "value": 0.4}]}
{"smiles": "CN1CCN(C(C(=O)NNc2cc(C(F)(F)F)cc(C(F)(F)F)c2)c2cccc(Cl)c2)CC1.O=CO", "note": "(racemic) [Compound 45, (±)-formic acid-N′-[3,5-bis(trifluoromethyl)phenyl]-2-(3-chlorophenyl)-2-(4-methyl-1-piperazinyl)acetohydrazide]", "values": [{"measurement": "intrinsic activity (IA)", "setting": "[1]", "value": 0.4}]}
{"smiles": "CN1CCN(C(C(=O)NNc2cc(C(F)(F)F)cc(C(F)(F)F)c2)c2cccc3c2OC(F)(F)O3)CC1", "note": "(racemic) [Compound 46, (±)-N′-[3,5-bis(trifluoromethyl)phenyl]-2-(2,2-difluoro-1,3-benzodioxol-4-yl)-2-(4-methyl-1-piperazinyl)acetohydrazide]", "values": [{"measurement": "intrinsic activity (IA)", "setting": "[1]", "value": 0.4}]}
{"smiles": "O=C(NNc1cc(C(F)(F)F)cc(C(F)(F)F)c1)C(c1cccnc1)N1CCN2CCC[C@H]2C1", "note": "(single isomer, unassigned) [Compound 126]", "values": [{"measurement": "intrinsic activity (IA)", "setting": "[1]", "value": 0.4}]}
{"smiles": "CN1CCN(C(C)(C(=O)NNc2cc(C(F)(F)F)cc(C(F)(F)F)c2)c2ccccn2)CC1", "note": "(single isomer, unassigned) [Compound 130, N′-[3,5-bis(trifluoromethyl)phenyl]-2-(4-methyl-1-piperazinyl)-2-(2-pyridinyl)propanohydrazide]", "values": [{"measurement": "intrinsic activity (IA)", "setting": "[1]", "value": 0.4}]}
{"smiles": "Cc1ccc(C(C(=O)NNc2cc(C(F)(F)F)cc(C(F)(F)F)c2)N2CCN3CCC[C@@H]3C2)c(C)n1", "note": "(single isomer, unassigned; diastereoisomer 1) [Compound 80]", "values": [{"measurement": "intrinsic activity (IA)", "setting": "[1]", "value": 0.4}]}
{"smiles": "Cc1ccc(C(C(=O)NNc2cc(C(F)(F)F)cc(C(F)(F)F)c2)N2CCN3CCC[C@@H]3C2)cn1", "note": "(single isomer, unassigned; diastereoisomer 1) [Compound 92]", "values": [{"measurement": "percentage activation", "setting": "[2]", "value": "> 40", "unit": "%"}]}
{"smiles": "Cc1ncccc1C(C(=O)NNc1cc(C(F)(F)F)cc(C(F)(F)F)c1)N1CCN2CCC[C@@H]2C1", "note": "(single isomer, unassigned; diastereoisomer 1) [Compound 94]", "values": [{"measurement": "percentage activation", "setting": "[2]", "value": "> 40", "unit": "%"}]}
{"smiles": "O=C(NNc1cc(C(F)(F)F)cc(C(F)(F)F)c1)C(c1ccc2c(c1)OCCO2)N1CCN2CCC[C@@H]2C1", "note": "(single isomer, unassigned; diastereoisomer 1) [Compound 96]", "values": [{"measurement": "percentage activation", "setting": "[2]", "value": "> 40", "unit": "%"}]}
{"smiles": "O=C(NNc1cc(C(F)(F)F)cc(C(F)(F)F)c1)C(c1ccccc1Cl)N1CCN2CCC[C@H]2C1", "note": "(single isomer, unassigned; diastereoisomer 2) [Compound 83]", "values": [{"measurement": "intrinsic activity (IA)", "setting": "[1]", "value": 0.4}]}
{"smiles": "O=C(NNc1cc(C(F)(F)F)cc(C(F)(F)F)c1)C(c1ccccc1Cl)N1CCN2CCC[C@@H]2C1", "note": "(single isomer, unassigned; diastereoisomer 2) [Compound 85]", "values": [{"measurement": "intrinsic activity (IA)", "setting": "[1]", "value": 0.4}]}
{"smiles": "CN1CCN(C(C(=O)NNc2cc(C(F)(F)F)cc(C(F)(F)F)c2)c2ccccc2Cl)CC1", "note": "(single isomer, unassigned; enantiomer 1) [Compound 9, N′-[3,5-bis(trifluoromethyl)phenyl]-2-(2-chlorophenyl)-2-(4-methyl-1-piperazinyl)acetohydrazide-enantiomer 1]", "values": [{"measurement": "intrinsic activity (IA)", "setting": "[1]", "value": 0.4}]}
{"smiles": "CN1CCN(C(C(=O)NNc2cc(C(F)(F)F)cc(C(F)(F)F)c2)c2ccc3c(c2)CCO3)CC1", "note": "(single isomer, unassigned; enantiomer 1) [Compound 20, N′-[3,5-bis(trifluoromethyl)phenyl]-2-(2,3-dihydro-1-benzofuran-5-yl)-2-(4-methyl-1-piperazinyl)acetohydrazide-enantiomer 1]", "values": [{"measurement": "intrinsic activity (IA)", "setting": "[1]", "value": 0.4}]}
{"smiles": "Cc1cccnc1C(C(=O)NNc1cc(C(F)(F)F)cc(C(F)(F)F)c1)N1CCN(C)CC1", "note": "(single isomer, unassigned; enantiomer 1) [Compound 55, N′-[3,5-bis(trifluoromethyl)phenyl]-2-(4-methyl-1-piperazinyl)-2-(3-methyl-2-pyridinyl)acetohydrazide-enantiomer 1]", "values": [{"measurement": "intrinsic activity (IA)", "setting": "[1]", "value": 0.4}]}
{"smiles": "CN1CCC(C(C(=O)NNc2cc(Cl)cc(Cl)c2)c2cccc3ccccc23)CC1", "note": "(single isomer, unassigned; enantiomer 1) [Compound 73, N′-(3,5-dichlorophenyl)-2-(1-methyl-4-piperidinyl)-2-(1-naphthalenyl)-acetohydrazide-enantiomer 1]", "values": [{"measurement": "intrinsic activity (IA)", "setting": "[1]", "value": 0.4}]}
{"smiles": "CN1CCN(C(C(=O)NNc2cc(C(F)(F)F)cc(C(F)(F)F)c2)c2cncnc2)CC1", "note": "(single isomer, unassigned; enantiomer 1) [Compound 78, N′-[3,5-bis(trifluoromethyl)phenyl]-2-(4-methyl-1-piperazinyl)-2-(5-pyrimidinyl)acetohydrazide-enantiomer 1]", "values": [{"measurement": "intrinsic activity (IA)", "setting": "[1]", "value": 0.4}]}
{"smiles": "Cc1cccnc1C(C(=O)NNc1cc(C(F)(F)F)cc(C(F)(F)F)c1)N1CCN(C)CC1", "note": "(single isomer, unassigned; enantiomer 2) [Compound 56, N′-[3,5-bis(trifluoromethyl)phenyl]-2-(4-methyl-1-piperazinyl)-2-(3-methyl-2-pyridinyl)acetohydrazide-enantiomer 2]", "values": [{"measurement": "intrinsic activity (IA)", "setting": "[1]", "value": 0.4}]}
